# In publication PMC9542353, “Design and synthesis of some new benzoylthioureido phenyl derivatives targeting carbonic anhydrase enzymes” (Journal of Enzyme Inhibition and Medicinal Chemistry, 2022):
# Assays:
# hCA IX = hCA IX (Homo sapiens, UniProt Q16790); assay: stopped flow CO2 hydrase assay, hCA IX
# Source text: (§1) A stopped flow CO2 hydrase assay was adopted using an SX.18 MV-R Applied Photophysics (Oxford, UK) stopped-flow instrument to assess the inhibition against the various CA isozymes[33].
# hCA XII = hCA XII (Homo sapiens, UniProt O43570); assay: stopped flow CO2 hydrase assay, hCA XII
# Source text: as §1
# hCA I = hCA I (Homo sapiens, UniProt P00915); assay: stopped flow CO2 hydrase assay, hCA I; conditions: for inhibitory activity against hCA I (in words): abstract statement
# Sequence of hCA I (P00915 whole entry): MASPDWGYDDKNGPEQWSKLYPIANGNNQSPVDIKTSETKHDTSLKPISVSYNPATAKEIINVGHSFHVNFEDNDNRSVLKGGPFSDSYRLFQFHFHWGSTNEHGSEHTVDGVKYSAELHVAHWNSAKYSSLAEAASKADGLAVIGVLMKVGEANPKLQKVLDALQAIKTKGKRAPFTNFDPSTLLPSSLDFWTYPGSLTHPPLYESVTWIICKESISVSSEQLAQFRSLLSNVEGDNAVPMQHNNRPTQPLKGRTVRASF
# Source text: as §1
# hCA II = hCA II (Homo sapiens, UniProt P00918); assay: stopped flow CO2 hydrase assay, hCA II
# Source text: as §1
# hCAII = conditions: read-out: IC50 against hCAII; cited from earlier work
# Sequence of hCA XII (O43570 25-354): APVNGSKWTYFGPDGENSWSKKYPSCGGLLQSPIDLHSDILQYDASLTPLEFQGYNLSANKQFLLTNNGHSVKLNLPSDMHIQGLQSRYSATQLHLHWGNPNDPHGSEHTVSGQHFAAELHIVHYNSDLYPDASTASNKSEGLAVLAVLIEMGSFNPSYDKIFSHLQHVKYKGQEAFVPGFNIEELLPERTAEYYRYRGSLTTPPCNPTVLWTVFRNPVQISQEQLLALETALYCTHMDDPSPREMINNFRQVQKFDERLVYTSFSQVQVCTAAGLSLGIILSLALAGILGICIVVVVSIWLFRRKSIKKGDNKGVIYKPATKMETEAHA
Compound,Ki (hCA IX) [µM],Ki (hCA XII) [µM],melting point [°C],Ki (hCA I) [µM],inhibitory activity against hCA I (in words) (hCA I),Ki (hCA II) [µM],IC50 (hCAII) [µM]
"NS(=O)(=O)c1ccc(NC(=S)NC(=O)c2ccccc2)cc1 [Compound 4a, N-[(4-Sulphamoylphenyl)carbamothioyl]benzamide]",0.106,0.0574,,,,,
"NS(=O)(=O)c1ccc(NC(=S)NC(=O)c2ccc(Cl)cc2)cc1 [Compound 4b, 4-Chloro-N-[(4-sulfamoylphenyl)carbamothioyl]benzamide]",0.115,> 100,226 to 234,0.0585,significant inhibitory activity,0.0581,
"NS(=O)(=O)c1ccc(NC(=S)NC(=O)c2ccc(Cl)c(Cl)c2)cc1 [Compound 4c, 3,4-Dichloro-N-[(4-sulphamoylphenyl)carbamothioyl]benzamide]",> 100,0.0881,206 to 208,0.0404,significant inhibitory activity,0.09,
"NS(=O)(=O)c1ccc(NC(=S)NC(=O)c2ccc(Br)cc2)cc1 [Compound 4d, 4-Bromo-N-[(4-sulfamoylphenyl)carbamothioyl]benzamide]",> 100,0.082,215 to 217,0.065,significant inhibitory activity,0.067,
"CCOC(=O)c1ccc(NC(=S)NC(=O)c2ccccc2)cc1 [Compound 6a, Ethyl-4-(3-benzoylthioureido)benzoate]",1.74,> 100,223 to 235,> 100,,> 100,
"CCOC(=O)c1ccc(NC(=S)NC(=O)c2ccc(Cl)cc2)cc1 [Compound 6b, Ethyl 4-[3-(4-chlorobenzoyl)thioureido]benzoate]",1.4,> 100,219 to 221,> 100,,> 100,
"CCOC(=O)c1ccc(NC(=S)NC(=O)c2ccc(Br)cc2)cc1 [Compound 6d, Ethyl-4-[3-(4-bromobenzoyl)thioureido]benzoate]",> 100,> 100,218 to 220,0.0854,,0.031,
O=C(NC(=S)Nc1ccccc1)c1ccc(C(F)(F)F)cc1 [III],,,,,,,2.48
COc1ccc(NC(=S)NC(=O)c2ccc(C(F)(F)F)cc2)cc1OC [II],,,,,,,1.9
CC(=O)NC(=S)Nc1ccc(S(N)(=O)=O)cc1 [IV],,,,,,,2.14

# Further lines, with some results ahead:
Ki (hCA IX) [µM],Ki (hCA XII) [µM],melting point [°C],Ki (hCA I) [µM],inhibitory activity against hCA I (in words) (hCA I),Ki (hCA II) [µM],Compound,IC50 (hCAII) [µM]
2.93,> 100,212 to 224,1.5,,0.465,"O=C(O)c1ccc(NC(=S)NC(=O)c2ccccc2)cc1 [Compound 5a, 4-(3-Benzoylthioureido)benzoic acid]",
> 100,> 100,232 to 240,8.8,,5.54,"O=C(O)c1ccc(NC(=S)NC(=O)c2ccc(Cl)cc2)cc1 [Compound 5b, 4-[3-(4-Chlorobenzoyl)thioureido]benzoic acid]",
1.74,> 100,216 to 218,> 100,,6,"O=C(O)c1ccc(NC(=S)NC(=O)c2ccc(Cl)c(Cl)c2)cc1 [Compound 5c, 4-[3-(3,4-Dichlorobenzoyl)thioureido]benzoic acid]",
> 100,> 100,206 to 215,5.56,significant inhibitory activity,> 100,"O=C(O)c1ccc(NC(=S)NC(=O)c2ccc(Br)cc2)cc1 [Compound 5d, 4-[3-(4-Bromobenzoyl)thioureido]benzoic acid]",
0.239,> 100,216 to 218,0.809,,> 100,"CCOC(=O)c1ccc(NC(=S)NC(=O)c2ccc(Cl)c(Cl)c2)cc1 [Compound 6c, Ethyl 4-[3-(3,4-dichlorobenzoyl)thioureido]benzoate]",
0.0322,0.083,225 to 227,0.0676,significant inhibitory activity,0.0155,"COc1cc(NC(C)=O)ccc1C(=O)NC(=S)Nc1ccc(S(N)(=O)=O)cc1 [Compound 12a, 4-Acetamido-2-methoxy-N-[(4-sulfamoylphenyl)carbamothioyl]benzamide]",
1.78,> 100,248 to 250,> 100,,2.77,"COc1cc(NC(=O)C(C)C)ccc1C(=O)NC(=S)Nc1ccc(S(N)(=O)=O)cc1 [Compound 12b, 4-Isobutyramido-2-methoxy-N-[(4-sulfamoylphenyl)carbamothioyl] benzamide]",
0.144,0.226,250 to 252,0.091,significant inhibitory activity,0.0942,"COc1cc(NC(=O)c2ccc(C)cc2)ccc1C(=O)NC(=S)Nc1ccc(S(N)(=O)=O)cc1 [Compound 12c, 2-Methoxy-4-(4-methylbenzamido)-N-[(4-sulfamoylphenyl)carbamothioyl] benzamide]",
1.09,> 100,245 to 247,1.71,,0.647,"COc1cc(NC(C)=O)ccc1C(=O)NC(=S)Nc1ccc(C(=O)O)cc1 [Compound 13a, 4-[3-(4-Acetamido-2-methoxybenzoyl)thioureido]benzoic acid]",
0.289,> 100,256 to 258,> 100,,0.193,COc1cc(NC(=O)C(C)C)ccc1C(=O)NC(=S)Nc1ccc(C(=O)O)cc1 [Compound 13b],
0.802,> 100,281 to 283,> 100,,0.504,"COc1cc(NC(=O)c2ccc(C)cc2)ccc1C(=O)NC(=S)Nc1ccc(C(=O)O)cc1 [Compound 13c, 4-(3-(2-Methoxy-4-(4-methylbenzamido)benzoyl)thioureido]benzoic acid]",
1.15,> 100,237 to 239,> 100,,> 100,"CCOC(=O)c1ccc(NC(=S)NC(=O)c2ccc(NC(C)=O)cc2OC)cc1 [Compound 14a, Ethyl-4-[3-(4-acetamido-2-methoxybenzoyl)thioureido]benzoate]",
1.5,> 100,245 to 247,> 100,,> 100,"CCOC(=O)c1ccc(NC(=S)NC(=O)c2ccc(NC(=O)C(C)C)cc2OC)cc1 [Compound 14b, Ethyl-4-[3-(4-isobutyramido-2-methoxybenzoyl)thioureido]benzoate]",
1.37,> 100,257 to 259,> 100,,2.02,"CCOC(=O)c1ccc(NC(=S)NC(=O)c2ccc(NC(=O)c3ccc(C)cc3)cc2OC)cc1 [Compound 14c, Ethyl-4-[3-(2-methoxy-4-(4-methylbenzamido)benzoyl)thioureido]benzoate]",
